The text below walks through data of patent publication US20230416675A1, “EFFICIENT AND RAPID SPECIFICATION OF SPINAL NEURONAL SUBTYPES FROM HUMAN PLURIPOTENT STEM CELLS” (INSERM (INSTITUT NATIONAL DE LA SANTE ET DE LA RECHERCHE …, priority 2020, published 2023).

“Also recorded” adds a separate entry of the source.

What all share (type): cell-based, human
In data set [1] the test system is induced PSC (iPSC) line. Kind of data set: Induction of CDX2-expressing axial progenitors in an induced PSC line. To be noted: CHIR increased from 3 to 4 μM. Here is the method:
Human PSC embryoid body-based differentiation was performed as previously described (Maury et al., 2015). hPSC were dissociated with cold Accutase (Life Technologies) for 3 to 5 min at 37° C. and resuspended in differentiation medium N2B27 (Advanced DMEM F12, Neurobasal vol:vol (Life Technologies)), supplemented with N2 (Life Technologies), B27 without Vitamin A (Life technologies), penicillin/streptomycin 1%, β-Mercaptoéthanol 0.1% (Life Technologies), with Y-27632 (10 μM, Stemgent or Stem Cell Technologies), CHIR-99021 (3 μM or 4 μM Selleckchem) SB431542 (20 μM, Selleckchem) and LDN 193189 (0.1 μM, Selleckchem). 2×10^5 cells ml^-1 were seeded in ultra-low attachment 6 well plates (Corning) to form embryoid bodies (EBs). All conditions of differentiation received the same medium at day 2 and at day 3 but SB431542 was removed at day 3. Then, the differentiation proceeded according to the […] presented above the figures. SAG (Smoothened Agonist, Merck millipore), FGF2 (Recombinant Human FGF basic, Peprotech), RA (Sigma-Aldrich), GDF11 (Recombinant Human/Murine/Rat GDF11, Peprotech), PD0325901 (Selleckchem), PD173074, SCH772984 (Selleckchem), DAPT (Stemgent) were added at indicated time points. For concentrations see Table S2. Media were changed every other day unless specified. […]

The test system of data set [2] is hPSC-derived axial progenitors. As to the kind of experiment: Motor neuron (MN) subtype specification: immunostaining of embryoid bodies on day 14 of differentiation, proportion of MNs (ISL1+ cells) expressing HOX/FOXP1/SCIP markers. To be noted: for rostro-caudal identity of MNs generated: inhibitor added at D3 up to D7, RA/SAG at D7; for efficiency of MN generation: inhibitor from D3 to D7, RA/SAG at D7; for MN identities induced: extrinsic cue added on D3 with RA/SAG, all concentrations and durations. The protocol:
(§1) Human PSC embryoid body-based differentiation was performed as previously described (Maury et al., 2015). hPSC were dissociated with cold Accutase (Life Technologies) for 3 to 5 min at 37° C. and resuspended in differentiation medium N2B27 (Advanced DMEM F12, Neurobasal vol:vol (Life Technologies)), supplemented with N2 (Life Technologies), B27 without Vitamin A (Life technologies), penicillin/streptomycin 1%, β-Mercaptoéthanol 0.1% (Life Technologies), with Y-27632 (10 μM, Stemgent or Stem Cell Technologies), CHIR-99021 (3 μM or 4 μM Selleckchem) SB431542 (20 μM, Selleckchem) and LDN 193189 (0.1 μM, Selleckchem). 2×10^5 cells ml^−1 were seeded in ultra-low attachment 6 well plates (Corning) to form embryoid bodies (EBs). All conditions of differentiation received the same medium at day 2 and at day 3 but SB431542 was removed at day 3. Then, the differentiation proceeded according to the schemas presented above the figures. SAG (Smoothened Agonist, Merck millipore), FGF2 (Recombinant Human FGF basic, Peprotech), RA (Sigma-Aldrich), GDF11 (Recombinant Human/Murine/Rat GDF11, Peprotech), PD0325901 (Selleckchem), PD173074, SCH772984 (Selleckchem), DAPT (Stemgent) were added at indicated time points. For concentrations see Table S2. Media were changed every other day unless specified.
EBs were collected, rinsed with PBS then fixed with 4% PFA for 5 min at 4° C. and rinsed with PBS 3 times for 5 min. EBs were cryoprotected with 30% sucrose and embedded in OCT (Leica) prior sectioning with a cryostat. Alternatively, day 2, 3 and 4 progenitors were plated on Matrigel (Corning, diluted according to manufacturer recommendation) coated coverslips and let to adhere between for 30 min prior fixation with 4% PFA for 5 min at 4° C.
All immunostainings were performed as follow: cells or sections were incubated with a saturation solution (PBS/FBS 10%/0.2% Triton) for 10 minutes. Primary antibodies (Table S3) were diluted in staining solution (PBS/2% FBS/0.2% Triton) and incubated overnight at 4° C. in a humidified chamber. Following 4 PBS washes (10 min each), secondary antibodies (Alexa488, Alexa568 and Alexa647, Life Technologies, 1:1,000) were added for 1 h at RT. After 3 PBS washes, DAPI was added on the cells (Invitrogen, 1:3,000) for 5 min. Cells or slices were then mounted in Fluoromount (Sigma Aldrich or Cliniscience).
Samples were visualized and imaged using either a ZEISS LSM 880 Confocal Laser Scanning Microscope (Carl Zeiss Microscopy) controlled by Zen black software (Zeiss), a confocal microscope TCS SP5 II (Leica) or a DM6000 microscope (Leica) equipped with CoolSNAP EZ CDD camera, controlled by MetaMorph software (MetaMorph Inc). Alternatively, images were acquired using the automated microscope Cell Discoverer 7 (Zeiss), equipped with an Axiocam 506 m camera, with Zen black software (Zeiss).
All statistics were computed using Graphpad Prism software. One-way analysis of variance (ANOVA) with a Kruskall-Wallis post hoc analysis were performed following normality tests provided by Prism. In all figures, n are independent differentiations started from independent newly thawed hPSCs vials. For each condition at least 4 independent EBs were imaged in which all the cells were quantified by automated image analysis. The images were exported and saved as TIFF with Fiji if needed (Schindelin et al., 2012). Quantitative analyses on images were performed using the CellProfiler software (Carpenter et al., 2006) (Broad Institute open source at www.cellprofiler.org). DAPI stained nucleus were segmented into primary objects using CellProfiler segmentation pipeline and the nuclear mask was used to define objects on the target channels. The threshold to define positive nuclei for a given target was obtained using EBs' section negative for the target of interest. All images across conditions were then automatically analyzed in batch ensuring unbiased analysis. […]

The test system of data set [3] is HOX genes in hPSC-derived axial progenitors. Kind of data set: Real time PCR analysis of HOX mRNAs in progenitors. The note with it: for temporal increase of HOXC6, C8 and C9 mRNAs in progenitors: inhibitor at D3, progenitors at D4 and D5. The protocol: as §1
Total RNA were extracted (RNAeasy Plus Mini Kit, Qiagen) and cDNA synthesized using SuperScript III (Invitrogen). Quantitative real-time PCR was performed using a 7900HT fast real time PCR system (Applied Biosystems) with Sybr Green PCR Master Mix (Applied Biosystems). Alternatively performed using QuantStudio 5 Real-Time PCR System (Thermofisher Scientific) and a mix with qPCR Brilliant II SYBR MM with low ROX (Agilent). Primers are listed in Supplementary Table 3. All expression data were normalized to Cyclophilin A mRNA. All analyses were performed with three technical replicates per plate. Relative expression levels were determined by calculating 2-ΔΔCt.
For orientation: In qPCR the cycle at which signal appears reflects the starting amount.

The mark [4] stands for this setting: FGF2 15 ng/ml D3 to D9 together with RA/SAG.
The mark [5] stands for this setting: FGF2 60 ng/ml D3 to D9 together with RA/SAG.
The mark [6] stands for this setting: FGF2 120 ng/ml for 24 h from D3, with RA/SAG.
[7] abbreviates: FGF2 120 ng/ml for 48 h from D3, with RA/SAG.
The mark [8] stands for this setting: GDF11 25 ng/ml for 24 h with RA on D3 progenitors.

For `Cc1cnc(-c2cnc(NCCNc3ccc(C#N)cn3)nc2-c2ccc(Cl)cc2Cl)[nH]1` [CHIR, 6-[[2-[[4-(2,4-dichlorophenyl)-5-(5-methyl-1H-imidazol-2-yl)-2 pyrimidinyl]amino]ethyl]amino]-3-pyridinecarbonitrile], the “homogenous population of progenitors expressing CDX2 on D3” value in data set [1] is “necessary to generate a homogenous population of progenitors expressing CDX2 on D3”.
Take `O=C(NOC[C@H](O)CO)c1ccc(F)c(F)c1Nc1ccc(I)cc1F` [PD0325901, reference compound]: the “rostro-caudal identity of MNs generated” value in data set [2] was “anterior brachial identity (HOXC6)”; in data set [2] (listed as PD032590), “prevent the specification of HOXC8 and HOXC9 MNs”. The “efficiency of MN generation” value in data set [2] is “not impacted”. For the same molecule, the “temporal increase of HOXC6, C8 and C9 mRNAs in progenitors” value in data set [3] is “blocked this increase at D4 or D5”; in data set [3] (listed as PD032590), “prevent the temporal increase in caudal HOX expression”.
For the molecule `CCN(CC)CCCCNc1ncc2cc(-c3cc(OC)cc(OC)c3)c(NC(=O)NC(C)(C)C)nc2n1` [PD173074, reference compound], in data set [2], the “rostro-caudal identity of MNs generated” value was “prevent the specification of HOXC8 and HOXC9 MNs; also recorded: anterior brachial identity (HOXC6)”; the “efficiency of MN generation” value is “not impacted”. The “number of EBs collected” value in data set [2] (inhibitor from D3 to D7) is reported as “reduced number of EBs”. For the same molecule, the “temporal increase of HOXC6, C8 and C9 mRNAs in progenitors” value in data set [3] is “prevent the temporal increase in caudal HOX expression”.
As for “FGF2: Recombinant Human FGF basic, Peprotech, accession P09038; FGFR agonist”, in data set [2] (setting [4]), the “Caudal brachial HOXC8 MNs” value came to 68.2% and the “HOXC8 MNs, fold increase” value was determined as 8.6 fold. In data set [2] (setting [5]), the “HOXC9+/HOXC6- thoracic MNs” value is reported as 58.9% and the “HOXC9+/HOXC6- thoracic MNs, fold increase” value came to 82.5 fold. Moreover, the “HOXC6 MNs” value in data set [2] (FGF2 120 ng/ml D3 to D9 together with RA/SAG) is listed as “reduced slightly more HOXC6 MNs”. Also, in data set [2] (setting [6]), the “FOXP1^high/SCIP MNs” value was determined as 47.9%, the “HOXC6 MNs” value is 49.7%, the “HOXC8 MNs” value is on record as 79.4% and the “HOXC9 MNs” value was found to be 14.7%. Moreover, in data set [2] (setting [7]), the “FOXP1^high/SCIP MNs” value is listed as 13.2%, the “HOXC6 MNs” value stood at 7.5% and the “HOXC9 MNs” value is on record as 76.4%. The “MN identities induced” value in data set [2] is “induce more caudal MN subtypes; also recorded: more caudal MN identities were induced without the need of delaying RA addition”. Further, the “HOX gene expression compared to RA/SAG controls” value in data set [3] (24 h and 48 h post FGF2 treatment) was “precocious increase in HOXC8, HOXC9, HOXD9 and HOXC10 expression”.

B1: GDF11: Recombinant Human/Murine/Rat GDF11, Peprotech; member of the TGFβ family (protein, UniProt O95390 299-407, looked up)
Growth/differentiation factor …: NLGLDCDEHSSESRCCRYPLTVDFEAFGWDWIIAPKRYKANYCSGQCEYMFMQKYPHTHLVQQANPRGSAGPCCTPTKMSPINMLYFNDKQQIIYGKIPGMVVDRCGCS
Take B1: the “caudal thoracic or lumbar identities” value in data set [2] (GDF11 25 ng/ml for 24 h or 48 h with RA) is recorded as “none of the more caudal identities were observed”. In addition, in data set [2] (setting [8]), the “HOXC8 MNs” value worked out at 58.7% and the “HOXC9 MNs” value was found to be 41.0%. In addition, the “anterior thoracic MNs” value in data set [2] (GDF11 25 ng/ml for 48 h with RA on D3 progenitors) is “increasing after 48 h”. In addition, in data set [2], the “MN identities induced” value was “induce more caudal MN subtypes”.
